Results reported in patent US11220510B2, “Pyrrole tricyclic compounds as A2A / A2B inhibitors” (Incyte Corporation, priority 2018, dated 2022).
pEC50, pKi: −log10 of the molar value.

Tests used:
[1] = target: human adenosine A2B receptor (Homo sapiens (Human), UniProt P29275); test: Adenosine A2B Receptor Cyclic AMP GS Assay; assay type: cell-based; settings: HEK-293 cells expressing human A2B; agonist NECA 12 nM; cAMP accumulation by FRET; read-out: A2B_cAMP_EC50
Protocol: Example B. Adenosine A2B Receptor Cyclic AMP GS Assay Stably transfected HEK-293 cells expressing the human adenosine A2B receptor (Perkin Elmer) were maintained in MEM culture medium with 10% FBS and 100 μg/ml Geneticin (Life Technologies). 18 to 24 hours prior to assay, geneticin was removed from culture. The cisbio cAMP-GS Dynamic kit utilizing the FRET (Fluorescence Resonance Energy Transfer) technology was used to measure cAMP accumulation in the cells. Compounds of the present disclosure at an appropriate concentration were mixed with 10000 cells/well in white 96 well half area plates (Perkin Elmer) for 30 min at room temperature gently shaking. Agonist, NECA (R&D Technologies) at 12 nM was added to each well for 60 min at room temperature gently shaking. Detection reagents, d2-labeled cAMP (acceptor) and anti-cAMP cryptate (donor) were added to each well for 60 min at RT gently shaking. Plates were read on Pherastar (BMG Labtech), fluorescence ratio 665/620 was calculated and EC50 determination was performed by fitting the curve of percent of control versus the log of the compound concentration using GraphPad Prism.

[2] = target: Adenosine A2A receptor (Tag-lite Adenosine A2A labeled cells) (Homo sapiens (Human), UniProt P29274); test: A2A Tag-lite HTRF assay (fluorescent ligand displacement); settings: Red antagonist fluorescent ligand 12.5 nM, one-site competitive binding model, read-out: A2A_Ki
From the text: Example C. A2A Tag-Lite® HTRF Assay
The final concentration of DMSO was 1%.

Chain of Adenosine A2A receptor (Tag-lite Adenosine A2A labeled cells) (P29274 whole entry): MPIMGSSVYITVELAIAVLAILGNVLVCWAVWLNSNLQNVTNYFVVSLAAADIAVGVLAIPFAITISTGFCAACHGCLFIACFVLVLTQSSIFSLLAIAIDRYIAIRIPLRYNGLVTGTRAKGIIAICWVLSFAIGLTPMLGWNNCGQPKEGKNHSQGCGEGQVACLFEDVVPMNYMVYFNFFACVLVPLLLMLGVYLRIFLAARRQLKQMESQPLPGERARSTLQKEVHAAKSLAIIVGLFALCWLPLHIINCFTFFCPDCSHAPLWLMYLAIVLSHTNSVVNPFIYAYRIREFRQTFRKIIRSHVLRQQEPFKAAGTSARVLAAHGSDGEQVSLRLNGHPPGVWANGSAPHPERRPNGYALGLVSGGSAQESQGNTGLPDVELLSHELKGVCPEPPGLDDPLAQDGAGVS
Chain of human adenosine A2B receptor (P29275 whole entry): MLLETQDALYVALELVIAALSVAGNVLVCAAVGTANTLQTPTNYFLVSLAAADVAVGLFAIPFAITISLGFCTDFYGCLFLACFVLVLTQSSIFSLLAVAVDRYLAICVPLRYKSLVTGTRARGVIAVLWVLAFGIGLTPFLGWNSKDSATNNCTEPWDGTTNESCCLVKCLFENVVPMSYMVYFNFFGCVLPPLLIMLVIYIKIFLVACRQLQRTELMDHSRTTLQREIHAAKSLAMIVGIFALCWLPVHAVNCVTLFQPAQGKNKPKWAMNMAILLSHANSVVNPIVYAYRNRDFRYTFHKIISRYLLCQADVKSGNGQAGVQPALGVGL

pEC50 [1]	pKi [2]	Structure (SMILES)
7.00 to 8.00	> 8.00	CCCCCn1c2cc(-c3cnn(C4CN(c5nccc(N)n5)C4)c3)[nH]c2c(=O)n2c(C)nnc12 [Example 21, 7-(1-(1-(4-Aminopyrimidin-2-yl)azetidin-3-yl)-1H-pyrazol-4-yl)-3-methyl-9-pentyl-6,9-dihydro-5H-pyrrolo[3,2-d][1,2,4]triazolo[4,3-a]pyrimidin-5-one]
7.00 to 8.00	> 8.00	CCCCCn1c2cc(-c3cnn(C4CN(c5ncccn5)C4)c3)[nH]c2c(=O)n2c(C)nnc12 [Example 19, 3-Methyl-9-pentyl-7-(1-(1-(pyrimidin-2-yl)azetidin-3-yl)-1H-pyrazol-4-yl)-6,9-dihydro-5H-pyrrolo[3,2-d][1,2,4]triazolo[4,3-a]pyrimidin-5-one]
7.00 to 8.00	> 8.00	CCCCn1c2cc(-c3cnn(C4CN(c5nccc(C#N)n5)C4)c3)[nH]c2c(=O)n2c(C)nnc12 [Example 25, 2-(3-(4-(9-Butyl-3-methyl-5-oxo-6,9-dihydro-5H-pyrrolo[3,2-d][1,2,4]triazolo[4,3-a]pyrimidin-7-yl)-1H-pyrazol-1-yl)azetidin-1-yl)pyrimidine-4-carbonitrile]
7.00 to 8.00	> 8.00	CCCCn1c2cc(-c3cnn(C4CN(c5ncc(F)c(N)n5)C4)c3)[nH]c2c(=O)n2c(C)nnc12 [Example 29, 7-(1-(1-(4-Amino-5-fluoropyrimidin-2-yl)azetidin-3-yl)-1H-pyrazol-4-yl)-9-butyl-3-methyl-6,9-dihydro-5H-pyrrolo[3,2-d][1,2,4]triazolo[4,3-a]pyrimidin-5-one]
7.00 to 8.00	> 8.00	CCCCn1c2cc(-c3cnn(C4CN(c5ncccn5)C4)c3)[nH]c2c(=O)n2c(C)nnc12 [Example 24, 9-Butyl-3-methyl-7-(1-(1-(pyrimidin-2-yl)azetidin-3-yl)-1H-pyrazol-4-yl)-6,9-dihydro-5H-pyrrolo[3,2-d][1,2,4]triazolo[4,3-a]pyrimidin-5-one]
7.00 to 8.00	> 8.00	CCCCCn1c2cc(-c3cnn(Cc4cncc(F)c4)c3)[nH]c2c(=O)n2c(C)nnc12 [Example 9, 7-(1-((5-Fluoropyridin-3-yl)methyl)-1H-pyrazol-4-yl)-3-methyl-9-pentyl-6,9-dihydro-5H-pyrrolo[3,2-d][1,2,4]triazolo[4,3-a]pyrimidin-5-one]
7.00 to 8.00	> 8.00	CCCCCn1c2cc(-c3cnn(Cc4cnc5cnn(C)c5c4)c3)[nH]c2c(=O)n2c(C)nnc12 [Example 7, 3-Methyl-7-(1-((1-methyl-1H-pyrazolo[4,3-b]pyridin-6-yl)methyl)-1H-pyrazol-4-yl)-9-pentyl-6,9-dihydro-5H-pyrrolo[3,2-d][1,2,4]triazolo[4,3-a]pyrimidin-5-one]
> 8.00	> 8.00	CCCCCn1c2cc(-c3cnn(Cc4cnc5cccnc5c4)c3)[nH]c2c(=O)n2c(C(F)(F)F)nnc12 [Example 12, 7-(1-((1,5-Naphthyridin-3-yl)methyl)-1H-pyrazol-4-yl)-9-pentyl-3-(trifluoromethyl)-6,9-dihydro-5H-pyrrolo[3,2-d][1,2,4]triazolo[4,3-a]pyrimidin-5-one]
